Several values for one entry are separate records, joined by “and”; a condition that tells them apart may be missing. Equal entries are not always repeated. Where two headings read alike, the source gives them in different places.

In data set [1] the test system is MCF-7 cells. The data set is described as follows: Cell cycle investigation (propidium iodide, flow cytometry). The data set is classed as cell-based, human. How it is done:
After incubation, the cells were trypsinized, harvested, washed with PBS, and fixed with ice-cold 70% ethanol in a dropwise manner prior to storage at −20 °C overnight. The cells were then washed with PBS, incubated with 200 μg/mL RNAse (PanReac, AppliChem, Darmstadt, Germany) and 20 μg/mL of propidium iodide (Sigma-Aldrich, St. Louis, MO, USA) for 30 min at 37 °C, and DNA content was analyzed using a NovoCyte flow cytometer (Agilent, Austin, TX, USA). The proportion of cells in each cell cycle phase was expressed as a percentage.
In general terms: A flow cytometer gives signals particle by particle.

Data set [2] can be described thus: Competitive assay with 4-hydroxytamoxifen (MTT viability). The data set is classed as cell-based. To be noted: human. How it is done: Since estrogen-dependent breast cancer MCF-7 cells were proposed to be more sensitive to compound 8, the estrogen receptor (ER) dependence of petromurin C (8) cytotoxicity to estrogen-dependent MCF-7 cells was investigated using 4-hydroxytamoxifen (4-OHT) as an ERs antagonist. MCF-7 cells were pretreated with 4-OHT at a nontoxic concentration of 0.1 µM for 1 h, and 8 at 10 µM was added for 48 h. The antagonist of estrogenic receptors, 4-hydroxytamoxifen (Lumiprobe, Moscow, Russia), was dissolved in DMSO at a concentration of 10 mM and stored with protection from light. The probe was then added to the cells at a final concentration of 1 µM. The investigated compounds were added to the cells after 1 h. Then the viability of MCF-7 cells was measured after 48 h using MTT assay (Section 4.8.3).

The subject of data set [3] is MCF-7 cells. The experiment in a line: Proliferation assay (CFDA SE, flow cytometry). To be noted: 5 µM, 48 h. The data set is classed as cell-based, human. How it is done:
MCF-7 cells at a concentration of 1.2 × 10^4 cells/well were seeded in a 12-well plate for 24 h. After adhesion, the cells were stained with (5,6)-carboxyfluorescein succinimidyl ester (CFDA SE) dye (LumiTrace CFDA SE kit; Lumiprobe, Moscow, Russia). Thereafter, the compound (5 µM) was added to the wells.
After 48 h of incubation, the cells were washed twice with PBS, scraped, and collected. The intensity of CFDA fluorescence was analyzed using a NovoCyte flow cytometer (Agilent, Austin, TX, USA), and the data were analyzed as previously described.

The test system of data set [4] is A375 cells. More on the design: method as in PMID 29642369. Particulars: A375, at 100 µM; cited from earlier work.
The subject of data set [5] is vancomycin-resistant enterococci strains. More on the design: method as in PMID 29642369. To be noted: cited from earlier work.
In data set [6] the test system is HepG2 cells. More on the design: method as in PMID 29642369. Particulars: HepG2, at 100 µM; cited from earlier work.

Consider `COc1c(OC)c(-c2c[nH]c3ccc(O)cc23)c(OC)c(OC)c1-c1c[nH]c2ccccc12` [Compound 8, petromurin C], for which, in data set [1] (1 h, 5 µM), the “Cell Disturbance, G1 Phase” value stood at 22.69 ± 0.42%; the “Cell Disturbance, G2/M Phase” value is reported as 29.91 ± 1.95%; the “Cell Disturbance, S Phase” value is recorded as 45.52 ± 1.05%. In data set [1] (1 h, 10 µM), the “Cell Disturbance, G1 Phase” value was 21.37 ± 2.18%; the “Cell Disturbance, G2/M Phase” value is 25.9% and 25.96 ± 0.62 %; the “Cell Disturbance, S Phase” value was 53.1% and 53.15 ± 1.53 %. Also, in data set [1] (3 h, 5 µM), the “Cell Disturbance, G1 Phase” value was 26.2% and 26.20 ± 1.17 %; the “Cell Disturbance, G2/M Phase” value is 17.2% and 17.20 ± 1.23 %; the “Cell Disturbance, S Phase” value was 56.6% and 56.60 ± 1.25 %. For the same compound, in data set [1] (3 h, 10 µM), the “Cell Disturbance, G1 Phase” value worked out at 33.82 ± 0.98%; the “Cell Disturbance, G2/M Phase” value was 14.9% and 14.95 ± 1.08 %; the “Cell Disturbance, S Phase” value was 51.8% and 51.79 ± 0.86 %. Also, the viability (usually a read-out of living cells in per cent, often relative to untreated cells) at 48 h, 10 µM in data set [2] (MCF-7 cells pretreated with 4-hydroxytamoxifen, 4-OHT 0.1 µM for 1 h, then 8 at 10 µM, read-out: viability of 4-OHT-pretreated MCF-7 cells) was 84.4 ± 1.1%. The viability at 48 h, 10 µM in data set [2] (MCF-7 cells, 8 at 10 µM, no 4-OHT, read-out: viability of MCF-7 cells) amounted to 76.1 ± 1.6%. In data set [3], the “percentage of cells in division 1” value is listed as 76.9%, the “percentage of cells in division 2” value is recorded as 15.2% and the “percentage of cells in division 3” value was 5.5%.
As for `COC1=C(c2c[nH]c3ccccc23)C(=O)C(CC=C(C)C)=C(c2c[nH]c3ccccc23)C1=O` [Compound 6, kumbicin D], the “effect on cells” value in data set [4] and in data set [6] was “weak effects” each time. Besides, in data set [5], the “antibacterial activity” value is on record as “not active”.

Source of the values: article PMC12471299, “Secondary Metabolites of the Marine Sponge-Derived Fungus Aspergillus subramanianii 1901NT-1.40.2 and Their Antimicrobial and Anticancer Activities” (Marine Drugs, 2025).
